Publication PMC7315563, “Bioactive fluorenes. Part III: 2,7-dichloro-9H-fluorene-based thiazolidinone and azetidinone analogues as anticancer and antimicrobial against multidrug resistant strains agents” (BMC Chemistry, 2020)
≈ marks a conversion by molar mass, not a printed value.

How the values were obtained:
[1] = tested on: WI-38 human normal fibroblast cells; test: cell viability assay (MTT); type: cell-based; details: 24 h; for viability at 31.25 µg/mL: read-out: Validity (%) for sample concentrations (µg/mL) 31.25; for viability at 62.5 µg/mL: 62.50 µg/mL, read-out: Validity (%) for sample concentrations (µg/mL) 62.50; for viability at 125 µg/mL: read-out: Validity (%) for sample concentrations (µg/mL) 125; for viability at 250 µg/mL: read-out: Validity (%) for sample concentrations (µg/mL) 250; for viability at 500 µg/mL: read-out: Validity (%) for sample concentrations (µg/mL) 500
Procedure: (§1) WI-38 normal lung fibroblast cells, A549 lung cancer cells, and MDA-MB-231 breast cancer cells were obtained from VACSERA—Cell Culture Unit, Cairo, Egypt. The cell lines were originally obtained from the American Tissue Culture Collection (ATCC). WI-38, A549, and MDA-MB-231 cell lines were cultured in RPMI-1640 medium supplemented with 10% inactivate fetal bovine serum (FBS) and 1% penicillin/streptomycin were bought (Gibco, Invitrogen, CA). WI-38, A549, and MDA-MB-231 cells were seeded into 96-well plates (at a density of 5000 cells/well). On the following day, cells were treated with different concentrations (0, 1, 10, 31.25, 62.5, 125, 250, 500 µg/mL) of 16 fluorene derivatives in fresh medium and incubated for another 24 h. Cell viability was then assessed using the MTT assay (Sigma Aldrich, St. Louis, MO, USA), and the absorbance was read at 570 nm using an ELISA microplate reader (Molecular Devices, Downingtown, PA, USA).

[2] = tested on: MDA-MB-231 human breast cancer cells; test: cell viability assay (MTT); type: cell-based; details: 24 h; for viability at 1 µg/mL: read-out: Validity (%) for sample concentrations (µg/mL) 1; for viability at 10 µg/mL: read-out: Validity (%) for sample concentrations (µg/mL) 10; for viability at 31.25 µg/mL: read-out: Validity (%) for sample concentrations (µg/mL) 31.25; for viability at 62.5 µg/mL: read-out: Validity (%) for sample concentrations (µg/mL) 62.5; for viability at 125 µg/mL: read-out: Validity (%) for sample concentrations (µg/mL) 125; for viability at 250 µg/mL: read-out: Validity (%) for sample concentrations (µg/mL) 250; for viability at 500 µg/mL: read-out: Validity (%) for sample concentrations (µg/mL) 500
Procedure: as §1

[3] = tested on: A549 human lung cancer cells; test: cell viability assay (MTT); type: cell-based; details: 24 h; for viability at 1 µg/mL: read-out: Validity (%) for sample concentrations (µg/mL) 1; for viability at 10 µg/mL: read-out: Validity (%) for sample concentrations (µg/mL) 10; for viability at 31.25 µg/mL: read-out: Validity (%) for sample concentrations (µg/mL) 31.25; for viability at 62.5 µg/mL: 62.50 µg/mL, read-out: Validity (%) for sample concentrations (µg/mL) 62.50; for viability at 125 µg/mL: read-out: Validity (%) for sample concentrations (µg/mL) 125; for viability at 250 µg/mL: read-out: Validity (%) for sample concentrations (µg/mL) 250; for viability at 500 µg/mL: read-out: Validity (%) for sample concentrations (µg/mL) 500; for viability at 1000 µg/mL: read-out: Validity (%) for sample concentrations (µg/mL) 1000
Procedure: as §1, with “On the following day, cells were treated with different concentrations (0, 1, 10, 31.25, 62.5, 125, 250, 500 µg/mL) of 16 fluorene derivatives in fresh medium and incubated for another 24 h.” left out

[4] = tested on: Staphylococcus aureus (S. aureus), multidrug resistant clinical isolate; test: agar well diffusion assay; type: cell-based; details: Staphylococcus aureus; S. aureus; 500 µg/mL of tested compound; 24 h
Text: (§2) All microbial strains were kindly provided from the department of Medical Microbiology and Immunology faculty of Medicine Assiut University, these clinical isolates were obtained from clinical cases of infections admitted to Assiut University hospital as urinary tract infections, corneal ulcers, bacterial and fungal pneumonia, otomycosis, oral thrush and wound infections.
(§3) The clinical isolates used were multidrug resistant strains, they were resistant to β lactam (penicillin, amoxacillin, oxacillin), cephalosporins (cefazolin, cefaclor and cefepime) and macrolides (erythromycin and clarithromycin), they included Gram positive bacteria as Staphylococcus aureus (S. aureus), Methicillin-resistant Staphylococcus aureus (MRSA), Streptococcus pneumoniae (S. pneumoniae), and Gram negative bacteria as Escherichia coli (E. coli), Klebsiella pneumoniae (K. pneumoniae), Pseudomonas aeruginosa (P. aeruginosa), and Acinetobacter baumannii (A. baumannii). The fungal strains that were tested are Aspergillus flavus (A. flavus), A. niger (A. niger) and Candida albicans (C. albicans).
(§4) The antimicrobial activity of the fluorene derivatives was initially evaluated by agar well diffusion assay. Mueller–Hinton agar (CM0337) was poured into Petri dishes at 50–60 °C and left to solidify for 15 min. Subsequently, overnight microbial suspensions of tested strains was adjusted to turbidity of 0.5 McFarland Standard, which equals to 1–2 × 10^8 CFU/mL for bacteria and 1–5 × 10^6 for fungi. The microbial inoculums were then diluted in 1:100 ratio in case of bacteria and 1:10 ratio in case of fungi in order to get 1–5 × 10^5 CFU/mL. a sterile cotton swab was dipped into the adjusted microbial suspension and the Mueller–Hinton agar plates were inoculated by evenly streaking cotton swab over the agar medium. Then wells with a diameter of 0.5 cm were cut in the medium with a sterile cork borer. Stock solutions of the flourene derivatives were diluted in DMSO 1% to get 500 μg/mL concentrations. The tested flourene derivatives and controls (50 μL) were dispensed into the wells. The plates were incubated for 24 h at 37 °C for bacteria and C. albicans while at 25 °C for A. falvus and A. niger. The diameters of zones of inhibition (ZOI) around the wells were measured in mm. Following control agents were used: positive control agents—vancomycin (50 μg/mL) for Gram positive bacteria, gentamicin (10 μg/mL) (for Gram negative bacteria) and fluconazole 25 μg/mL for fungi and negative control agent is 1% DMSO.

[5] = tested on: Escherichia coli (E. coli), multidrug resistant clinical isolate; test: agar well diffusion assay; type: cell-based; details: 24 h, 500 µg/mL of tested compound
Text: as §2, §3, §4

Row | Structure (SMILES) | viability at 31.25 µg/mL [1] | viability at 62.5 µg/mL [1] | viability at 125 µg/mL [1] | viability at 250 µg/mL [1] | viability at 500 µg/mL [1] | IC50 [1] | viability at 1 µg/mL [2] | viability at 10 µg/mL [2] | viability at 31.25 µg/mL [2] | viability at 62.5 µg/mL [2] | viability at 125 µg/mL [2] | viability at 250 µg/mL [2] | viability at 500 µg/mL [2] | IC50 [2] | melting point | viability at 1 µg/mL [3] | viability at 10 µg/mL [3] | viability at 31.25 µg/mL [3] | viability at 62.5 µg/mL [3] | viability at 125 µg/mL [3] | further results
1 | O=C1CSC(c2ccc(Br)cc2)N1c1nc(-c2cc(Cl)cc3c2-c2ccc(Cl)cc2C3)cs1 (centres unmarked) [5d, 2-(4-Bromophenyl)-3-(4-(2,7-dichloro-9H-fluoren-4-yl)thiazol-2-yl)thiazolidin-4-one] | 94.9% | 88.5% | 86.1% | 50.7% | 44.2% | 268 µg/mL (≈ 467 µM) | 96.8% | 94.4% | 93.7% | 92.4% | 88.4% | 87.2% | 85.7% | > 500 µg/mL | 155 to 157 °C | 98.4% | 91.7% | 88.9% | 82.2% | 78.8% | viability at 250 µg/mL [3]: 73%; viability at 500 µg/mL [3]: 58.6%; viability at 1000 µg/mL [3]: 18.1%; IC50 [3]: 574 µg/mL (≈ 999 µM); zone of inhibition at 500 µg/mL [4]: 4 mm
2 | O=C1CSC(C=Cc2ccccc2)N1c1nc(-c2cc(Cl)cc3c2-c2ccc(Cl)cc2C3)cs1 (centres unmarked) [5i, 3-(4-(2,7-Dichloro-9H-fluoren-4-yl)thiazol-2-yl)-2-styrylthiazolidin-4-one] | 88.2% | 86.9% | 69.1% | 63.1% | 59.3% | > 500 µg/mL | 96% | 83.8% | 61% | 56.2% | 52.2% | 50.5% | 46.1% | 334 µg/mL (≈ 640 µM) | 114 to 116 °C | 93.3% | 92.2% | 91.4% | 85.6% | 81.3% | viability at 250 µg/mL [3]: 76.9%; viability at 500 µg/mL [3]: 63.2%; viability at 1000 µg/mL [3]: 49.3%; IC50 [3]: 896 µg/mL (≈ 1720 µM); zone of inhibition at 500 µg/mL [4]: 10 mm
3 | O=C1CSC(c2ccc[nH]2)N1c1nc(-c2cc(Cl)cc3c2-c2ccc(Cl)cc2C3)cs1 (centres unmarked) [5l, 3-(4-(2,7-Dichloro-9H-fluoren-4-yl)thiazol-2-yl)-2-(1H-pyrrol-2-yl)thiazolidin-4-one] | 70.5% | 60.6% | 57.2% | 48.1% | 39.5% | 223 µg/mL (≈ 460 µM) | 99.1% | 87.6% | 79.7% | 76.2% | 72.4% | 64.6% | 57.8% | > 500 µg/mL | 124 to 126 °C | 96.5% | 93.6% | 75.4% | 72.2% | 68% | viability at 250 µg/mL [3]: 62.9%; viability at 500 µg/mL [3]: 51.9%; viability at 1000 µg/mL [3]: 41.3%; IC50 [3]: 577 µg/mL (≈ 1190 µM); zone of inhibition at 500 µg/mL [4]: 9 mm; zone of inhibition at 500 µg/mL [5]: 6 mm
4 | COc1ccc(C2C(Cl)C(=O)N2c2nc(-c3cc(Cl)cc4c3-c3ccc(Cl)cc3C4)cs2)cc1 (centres unmarked) [6b, 3-Chloro-1-(4-(2,7-dichloro-9H-fluoren-4-yl)thiazol-2-yl)-4-(4-methoxyphenyl)azetidin-2-one] | 94.1% | 87.9% | 71.6% | 62.6% | 57.7% | > 500 µg/mL | 95.9% | 93.4% | 89.7% | 84.2% | 79.8% | 72.9% | 68.9% | > 500 µg/mL | 110 to 112 °C | 95.7% | 86.9% | 85.8% | 83.5% | 77.8% | viability at 250 µg/mL [3]: 68.2%; viability at 500 µg/mL [3]: 35.2%; viability at 1000 µg/mL [3]: 36.3%; IC50 [3]: 338 µg/mL (≈ 640 µM); zone of inhibition at 500 µg/mL [5]: 12 mm
